Experimental findings from patent US20220072095A1, “METHODS AND COMPOSITIONS FOR TREATING SKIN DISEASES” (VANDERBILT UNIVERSITY, priority 2018, published 2022) are described below.

Series [1] is described as follows: Solubility of NTM peptides. To be noted: cSN50: depending on the method of synthesis and purification; read-out: soluble at levels of. Type of series: physicochemical. The method, then:
cSN50.1 is a cyclized peptide having the sequence of cSN50 with the exception that the tyrosine at position 18 of cSN50, adjacent to the first cysteine, has been removed. Methods of making and using cSN50 are described, for example, in U.S. Pat. Nos. 7,553,929 and 6,495,518. The amino acid sequence of cSN50.1 is […] (SEQ ID NO: 2). The tyrosine at position 18 was removed from the sequence of cSN50 to increase solubility. cSN50 is soluble at levels of ranging from 2.0 mg/mL to 40 mg/mL depending on the method of synthesis and purification whereas cSN50.1 is soluble at levels of at least 100 mg/ml. Any mimetics, derivatives, or homologs of cSN50.1 may be used in the compositions, methods, and kits disclosed herein. cSN50.1 is also encompassed by SEQ ID NO: 3, SEQ ID NO: 4 and SEQ ID NO: 5. Additional examples of NTMs include fragment-designed and synthesized peptides in which cargo is incorporated as two, rather than one, modules or cargos derived from intracellular proteins other than NFκB 1. Such additional examples include the sequences of SEQ ID NO: 6, SEQ ID NO: 7, SEQ ID NO: 8, and SEQ ID NO: 9.

The target in the next series is Imp beta (Homo sapiens, UniProt Q14974). To be noted: cell culture and preclinical studies.

Converted amounts (≈) assume the structure as drawn. Bridge positions count the residues as written; N and C are the ends. Peptide text beside a SMILES is read from it.

Imp beta, sequence (Q14974 whole entry, looked up): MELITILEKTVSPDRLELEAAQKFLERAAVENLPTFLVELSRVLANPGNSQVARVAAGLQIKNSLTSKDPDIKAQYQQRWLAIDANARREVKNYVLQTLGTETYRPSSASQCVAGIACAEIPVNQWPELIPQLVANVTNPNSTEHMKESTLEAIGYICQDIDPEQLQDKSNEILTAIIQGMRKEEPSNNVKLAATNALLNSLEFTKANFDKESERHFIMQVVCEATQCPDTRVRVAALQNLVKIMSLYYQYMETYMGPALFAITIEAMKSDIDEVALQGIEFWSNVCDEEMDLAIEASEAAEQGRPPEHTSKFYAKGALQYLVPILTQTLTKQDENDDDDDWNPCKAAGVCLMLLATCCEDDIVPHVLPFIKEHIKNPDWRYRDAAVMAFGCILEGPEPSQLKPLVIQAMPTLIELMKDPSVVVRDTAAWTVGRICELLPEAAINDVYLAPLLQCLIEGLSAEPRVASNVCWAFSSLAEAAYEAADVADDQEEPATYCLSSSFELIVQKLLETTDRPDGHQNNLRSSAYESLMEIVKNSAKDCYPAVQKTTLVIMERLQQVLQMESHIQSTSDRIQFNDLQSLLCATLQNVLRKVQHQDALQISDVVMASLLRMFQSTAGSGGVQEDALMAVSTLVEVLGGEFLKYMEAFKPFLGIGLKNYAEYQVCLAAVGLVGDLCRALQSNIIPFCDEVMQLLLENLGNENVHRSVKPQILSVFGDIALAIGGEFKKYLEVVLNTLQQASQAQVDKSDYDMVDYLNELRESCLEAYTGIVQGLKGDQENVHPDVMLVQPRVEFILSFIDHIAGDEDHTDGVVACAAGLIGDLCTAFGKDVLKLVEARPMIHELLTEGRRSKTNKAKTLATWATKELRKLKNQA

For `CSCC[C@@H]1NC(=O)[C@H](CC(C)C)NC(=O)[C@H](CCCCN)NC(=O)[C@H](CCC(N)=O)NC(=O)[C@H](CCCNC(=N)N)NC(=O)[C@H](CCCCN)NC(=O)[C@H](CCCNC(=N)N)NC(=O)[C@H](CCC(N)=O)NC(=O)[C@H](C(C)C)NC(=O)[C@@H](NC(=O)[C@@H]2CCCN2C(=O)[C@H](C)NC(=O)[C@H](CC(C)C)NC(=O)[C@H](CC(C)C)NC(=O)[C@H](C)NC(=O)[C@H](CC(C)C)NC(=O)[C@H](CC(C)C)NC(=O)[C@@H](NC(=O)[C@H](C)NC(=O)[C@@H]2CCCN2C(=O)[C@H](CC(C)C)NC(=O)[C@H](CC(C)C)NC(=O)[C@H](C)NC(=O)[C@@H](NC(=O)[C@H](C)NC(=O)[C@H](C)N)C(C)C)C(C)C)CSSC[C@@H](C(=O)O)NC(=O)[C@@H]2CCCN2C1=O` [cSN50.1] (H-AAVALLPAVLLALLAPCVQRKRQKLMPC-OH; disulfide 17-28; N-terminus and C-terminus assumed), the solubility in series [1] is ≥ 100 mg/mL.
`CSCC[C@@H]1NC(=O)[C@H](CC(C)C)NC(=O)[C@H](CCCCN)NC(=O)[C@H](CCC(N)=O)NC(=O)[C@H](CCCNC(=N)N)NC(=O)[C@H](CCCCN)NC(=O)[C@H](CCCNC(=N)N)NC(=O)[C@H](CCC(N)=O)NC(=O)[C@H](C(C)C)NC(=O)[C@H](Cc2ccc(O)cc2)NC(=O)[C@@H](NC(=O)[C@@H]2CCCN2C(=O)[C@H](C)NC(=O)[C@H](CC(C)C)NC(=O)[C@H](CC(C)C)NC(=O)[C@H](C)NC(=O)[C@H](CC(C)C)NC(=O)[C@H](CC(C)C)NC(=O)[C@@H](NC(=O)[C@H](C)NC(=O)[C@@H]2CCCN2C(=O)[C@H](CC(C)C)NC(=O)[C@H](CC(C)C)NC(=O)[C@H](C)NC(=O)[C@@H](NC(=O)[C@H](C)NC(=O)[C@H](C)N)C(C)C)C(C)C)CSSC[C@@H](C(=O)O)NC(=O)[C@@H]2CCCN2C1=O` [cSN50] (H-AAVALLPAVLLALLAPCYVQRKRQKLMPC-OH; disulfide 17-29; N-terminus and C-terminus assumed): the solubility in series [1] was in the range of 2 to 40 mg/mL (≈ 0.635 to 12.7 mM).
On to AAVALLPAVLLALLAPCVQRDEQKLMPC [cSN50.1β], for which the “importin selectivity (Comments)” value on Imp beta is given as “Imp beta-selective”.
